Assay results reported in patent US9005581B2, “Modified pyrazine derivatives and uses thereof” (MediBeacon, LLC, priority 2008, dated 2015).

How the values were obtained:
[1] = Non-invasive optical pharmacokinetic studies (fluorescence at the ear); assay type: in vivo, Sprague-Dawley rats; settings: rat ear fluorescence, 1 mL of 2 mM solution into tail vein; mean ± SEM (n)
Description: Male Sprague-Dawley rats (330-380 g) are anesthetized by Inactin (I.P.) or 2% Isoflurane gas anesthesia delivered by a small rodent gas anesthesia machine (RC2, Vetequip, Pleasanton, Calif.). The animals are placed on a heated board where temperature is maintained between 36-38° C. One ear lobe is glued flat to a glass slide positioned approximately 2 mm beneath a fiber optic bundle for recording fluorescence from a test compound passing through the ear. After a 100 second baseline recording, 1 mL of a 2 mM solution is injected into the tail-vein of the rat and the fluorescence signal corresponding to plasma and tissue distribution and subsequent renal clearance of the compound is monitored at the ear. The pharmacokinetic parameters of the compounds are analyzed using WinNonLin pharmacokinetic modeling software (Pharsight, Mountain View, Calif.) and Microsoft (Redmond, Wash.) Excel. This method is used to detect renally excretable compounds of the invention and FIG. 8A provides a plot illustrating non-invasive in vivo fluorescence as a function of time following delivery of a renally excretable compound.
A nominal 473 nm solid state laser source (100) is employed (Power Technology model LDCU12/7314). The laser source is directed into one leg (110) of a silica bifurcated fiber optic bundle (120) (Oriel #77565). The common end of this bifurcated bundle (130) is placed approximately 2 mm from the rat ear (140). The second leg of the bifurcated fiber optic bundle (150) is fitted with a collimating beam probe (160) (Oriel #77644). A long pass filter (170) (Semrock LP02-488RS-25) and narrow band interference filter (180) (Semrock FF01-593/40-25) are placed in front of a photomultiplier tube (190) (Hamamatsu photosensor module H7827-011).
A chopper (200) (Stanford Research Systems model SR540) is placed after the laser and before the launch into the bifurcated cable. The output of the photosensor is connected to a lock-in amplifier (210) (Stanford Research Systems model SR830). The lock-in output is digitized (220) (National Instruments NI-USB-6211) and the digitized data is acquired by computer using LabVIEW® data acquisition software (230).

[2] = Urine elimination studies; assay type: in vivo, Sprague-Dawley rats; settings: rat, 1 mL of 2 mM in PBS by tail vein injection, mean ± SEM (n)
Description: Rat urine elimination studies are conducted in either conscious or anesthetized Sprague-Dawley rats. The test compound (1 mL, 2 mM in PBS) is administered by tail vein injection into conscious, restrained rats, with subsequent collection of urine at the time points of 2, 4 and 6 h post injection. The metabolic cages are washed with water to maximize the recovery of urine discharged at each time point. Alternatively, rats are anesthetized with 100 mg/kg Inactin intraperitoneally, a trachea tube is inserted to maintain adequate respiration, and 1 mL of test compound is injected into the lateral tail vein. Rats are placed on 37° C. heating pad during the entire experiment. At 6 h post injection, the abdomen is opened, and the urine is removed from the bladder using a 21 gauge needle and a 3 cc syringe. Quantitation of each compound in urine is performed via HPLC analysis using a set of external calibration standards and fluorescence detection. The percent recovery of compound in urine at each time point is calculated based on the balance of mass.

[3] = Photophysical properties (fluorescence excitation/emission in PBS); assay type: physicochemical; settings: 10 μM solution in PBS
Description: In general, renally excretable compounds are dissolved in PBS buffer to form a 2 mM stock solution. The UV absorbance properties are determined on a 100 μM solution in PBS using a UV-3101PC UV-Vis-NIR Scanning spectrophotometer system from Shimadzu. The fluorescence properties (λex, λem, and CPS at λem) are determined on a 10 μM solution in PBS using a Fluorolog-3 spectrofluorometer system from Jobin Yvon Horiba. The percent plasma protein binding is determined on a 20 μM compound solution in rat plasma incubated at 37° C. for 1 h. The separation of free from bound is made using an Amicon Centrifree YM-30 device (Regenerated Cellulose 30,000 MWCO) and a Z400K Refrigerated Universal Centrifuge from Hermle. The concentration of protein-free is determined via HPLC analysis using a set of external calibration standards and fluorescence detection.

Structure (SMILES) | Tissue Clearance (Optical) T1/2β [1] | Percent found in Urine (6 hrs) [2] | Photophysical Properties Emission λmax [3] | Photophysical Properties Excitation λmax [3]
COCCOCCOCCOCCOCCOCCOCCOCCOCCOCCOCCOCCOCCOCCOCCOCCOCCOCCOCCOCCOCCOCCOCCOCCCNc1nc(C(=O)NCCOCCOCCOCCOCCOCCOCCOCCOCCOCCOCCOCCOCCOCCOCCOCCOCCOCCOCCOCCOCCOCCOCCOCCOC)c(NCCCOCCOCCOCCOCCOCCOCCOCCOCCOCCOCCOCCOCCOCCOCCOCCOCCOCCOCCOCCOCCOCCOCCOCCOC)nc1C(=O)NCCOCCOCCOCCOCCOCCOCCOCCOCCOCCOCCOCCOCCOCCOCCOCCOCCOCCOCCOCCOCCOCCOCCOCCOC [Compound 5, 3,6-bis(2,5,8,11,14,17,20,23,26,29,32,35,38,41,44,47,50,53,56,59,62,65,68,71-tetracosaoxatetraheptacontan-74-ylamino)-N^2,N^5-di(2,5,8,11,14,17,20,23,26,29,32,35,38,41,44,47,50,53,56,59,62,65,68,71-tetracosaoxatriheptacontan-73-yl)pyrazine-2,5-dicarboxamide] | 17.6 ± 0.9 (4) min | 86 ± 7 (3) Percent | 603 nm | 495 nm
COCCOCCOCCOCCOCCOCCOCCOCCCNc1nc(C(=O)NCCOCCOCCOCCOCCOCCOCCOCCOCCOCCOCCOCCOCCOCCOCCOCCOCCOCCOCCOCCOCCOCCOCCOCCOC)c(NCCCOCCOCCOCCOCCOCCOCCOCCOC)nc1C(=O)NCCOCCOCCOCCOCCOCCOCCOCCOCCOCCOCCOCCOCCOCCOCCOCCOCCOCCOCCOCCOCCOCCOCCOCCOC [Compound 6, 3,6-bis(2,5,8,11,14,17,20,23-octaoxahexacosan-26-ylamino)-N^2,N^5-di(2,5,8,11,14,17,20,23,26,29,32,35,38,41,44,47,50,53,56,59,62,65,68,71-tetracosaoxatriheptacontan-73-yl)pyrazine-2,5-dicarboxamide] | 19.1 ± 0.8 (4) min | 92 ± 4 (3) Percent | 603 nm | 498 nm
COCCOCCOCCOCCOCCOCCOCCOCCCNc1nc(C(=O)N[C@H](CO)C(=O)O)c(NCCCOCCOCCOCCOCCOCCOCCOCCOC)nc1C(=O)N[C@H](CO)C(=O)O [Compound 8, 3,6-Bis(2,5,8,11,14,17,20,23-octaoxahexacosan-26-ylamino)-N^2,N^5-bis[(R)-1-carboxy-2-hydroxyethyl]pyrazine-2,5-dicarboxamide] |  | 61 ± 7 (3) Percent |  | 
COCCOCCOCCOCCCNc1nc(C(=O)NCC(O)CO)c(NCCCOCCOCCOCCOC)nc1C(=O)NCC(O)CO (stereo not shown) [Compound 13, 3,6-Bis(2,5,8,11-tetraoxatetradecan-14-ylamino)-N^2,N^5-bis(2,3-dihydroxypropyl)pyrazine-2,5-dicarboxamide] |  | 29 ± 2 (3) Percent |  | 
COCCOCCOCCOCCCNc1nc(C(=O)NCCOCCOCCOCCOCCOCCOCCOCCOCCOCCOCCOCCOC)c(NCCCOCCOCCOCCOC)nc1C(=O)NCCOCCOCCOCCOCCOCCOCCOCCOCCOCCOCCOCCOC [Compound 15, 3,6-Bis(2,5,8,11-tetraoxatetradecan-14-ylamino)-N^2,N^5-di(2,5,8,11,14,17,20,23,26,29,32,35-dodecaoxaheptatriacontan-37-yl)pyrazine-2,5-dicarboxamide] |  | 86 ± 1 (3) Percent | 603 nm | 492 nm
